# Assay results as given in patent publication EP4744680A1, “TARGETED CHEMICAL DRUG AND PREPARATION METHOD THEREFOR, PHARMACEUTICAL COMPOSITION, AND USE OF TARGETED CHEMICAL DRUG” (Bai Yao Zhi Da (Beijing) Nanobio Technology Co., Ltd., priority 2023, dated 2025).
# Experiments:
# U251-RFP human glioma = experiment: In-vivo efficacy study in the U251-RFP human glioma orthotopic mouse model (drug of Example 9); design: species or system mouse (BALB/c nude); settings: 15mg/Kg intraperitoneal daily for 4 weeks
# Text: 2.Dosing regimen: Table 41
# [1] = Body weight and general condition in the U251 study; assay type: in vivo, mouse (BALB/c nude); settings: 15mg/Kg intraperitoneal daily for 4 weeks
# Procedure: The relationship between body weight change and the dosing regimen is recorded.Survival and health status are also monitored, including activity levels and food intake during the dosing period. • c) Tumor and Organ Imaging: At the end of the dosing period, mice are euthanized, and their brain, heart, liver, spleen, lungs, and kidneys are excised.
structure (smiles),measurement,setting,value
Cn1nnc2c(C(N)=O)ncn2c1=O [Temozolomide],"Tumor growth inhibition rate (TGI, %) at different days post-inoculation",U251-RFP human glioma; Day 6,9.9%
same,"Tumor growth inhibition rate (TGI, %) at different days post-inoculation",U251-RFP human glioma; Day 10,13.2%
same,"Tumor growth inhibition rate (TGI, %) at different days post-inoculation",U251-RFP human glioma; Day 13,39.6%
same,"Tumor growth inhibition rate (TGI, %) at different days post-inoculation",U251-RFP human glioma; Day 17,65.6%
same,"Tumor growth inhibition rate (TGI, %) at different days post-inoculation",U251-RFP human glioma; Day 20,73.7%
same,"Tumor growth inhibition rate (TGI, %) at different days post-inoculation",U251-RFP human glioma; Day 24,73.7%
same,"Tumor growth inhibition rate (TGI, %) at different days post-inoculation",U251-RFP human glioma; Day 27,74.2%
same,Tumor weight,U251-RFP human glioma; end of dosing period,0.002 ± 0.001 g
same,IRTW%,U251-RFP human glioma; tumor weight inhibition rate,98.34%
same,Body weight change on Day 27 compared to pre-dosing,[1],+12%
